98 compounds from ChEMBL document CHEMBL3507680, “University of Dundee, Gates Library screen for HepG2 cell viability” can be followed below.

A short description of the data set: Human HepG2 cell viability assay in 384 well format. Format: toxicity, cell-based. The conditions noted are these: HepG2 cells, read-out: Inhibition. Also noted: dose 125 nL, time 70.5 hour; concentration not given beside the values.
`CO[C@@H]1CC[C@H]2[C@H]1OCCN2Cc1ccc(F)cc1`: the cytotoxicity at 70.5 h is -9.94%. Regarding `COc1ccc(Cl)cc1CN1CC(n2cccn2)C1`, the cytotoxicity at 70.5 h was -4.9%. For `O=c1[nH]nc2nc(N3CCOCC3)ccn12`, the cytotoxicity at 70.5 h is -1%. On to `Cc1nc(C)n(CC2CN(Cc3cscn3)CCO2)n1` (stereo not drawn), for which the cytotoxicity at 70.5 h is -6.91%. For `CN(C(=O)CNCCn1cccn1)C1(C#N)CCCCC1`, the cytotoxicity at 70.5 h was -3.85%. For the compound `O=C(Cc1ccccn1)N1CCc2c(O)nc(-c3cnccn3)nc2C1`, the cytotoxicity at 70.5 h was -6.46%. As to `CCC(C(=O)NCC1=CCN(C)CC1)c1ccccc1` (stereo not drawn), the cytotoxicity at 70.5 h worked out at 30%. With `CC(C)(C)NC(=O)c1nn(C2CCS(=O)(=O)C2)c2c1CCCC2` (stereo not drawn), the cytotoxicity at 70.5 h is -18.7%. For the compound `Cn1cc(CN2CCc3onc(COc4cccnc4)c3C2)cn1`, the cytotoxicity at 70.5 h turned out to be 14.8%. As for `CNC(=O)CS(=O)(=O)NC1CCC(C)CC1` (stereo not drawn), the cytotoxicity at 70.5 h is -15.8%. Take `CN(Cc1cn(C2CCNCC2)nn1)CC1CCCO1` (stereo not drawn): the cytotoxicity at 70.5 h was -9.31%. `COc1ccc(CNC(Cc2ccsc2)c2ncccc2C)cc1OC` (stereo not drawn): the cytotoxicity at 70.5 h was -4.5%.

For the compound `CNc1nc(C)c(C(=O)NCC(C)(C)N2CCCCC2)s1`, the cytotoxicity at 70.5 h was -0.6%. The value for `O=C(c1cc(C2CCCCC2)no1)N1C[C@H]2C[C@H](O)C[C@H]2C1` was -4.06%; that for `O=C(N1CCOCC1)N1CCCC(c2ncncc2-c2ccncc2)C1` (stereo not drawn) was -9.55%; that for `COc1c(C2CCCN2C(=O)c2c(C)noc2C)c(C)nn1C` (stereo not drawn) was -8.08%. Take `Cc1cc2c(cc1Cl)C=CC1(CCN(CC(=O)N3CCOCC3)CC1)O2`: the cytotoxicity at 70.5 h is 25.7%. Regarding `CN(Cc1nc2ccccc2c(=O)[nH]1)C[C@@H]1CCCN2CCCC[C@H]12`, the cytotoxicity at 70.5 h was -2.89%. Take `Cc1ccc(CN2CCc3ncnc(-c4ccc(F)cc4)c3CC2)o1`: the cytotoxicity at 70.5 h is -14.6%.

Regarding `COc1ccc(C(=O)N2CCC(Nc3cccnn3)CC2)cn1`, the cytotoxicity at 70.5 h worked out at 13.7%. As for `CCc1cnc(CN(C(C)=O)C2CCN(CC3(O)CCCCC3)C2)o1` (stereo not drawn), the cytotoxicity at 70.5 h stood at 13.4%.

`CCn1cc2c(n1)CN(S(=O)(=O)c1ccc(C)cc1)CC2COC` (stereo not drawn): the cytotoxicity at 70.5 h was -1.69%. The value for `CCOc1ccc(CNCc2ccc(C(=O)NC)cc2)cc1OCC` was -7.21%; that for `O=C(c1ccc2ccc(N3CCN(CC4CC4)CC3)n2c1)N1CCCO1` was -5.05%. To `COc1ccccc1OCC(=O)Nc1ncccc1C` belongs -3.19%; to `CNC(=O)N1Cc2cc(F)ccc2C2(CCN(C)CC2)C1`, -1.35%.

As for `Cn1nc(CN2CCCC2)c2c1CN(C(=O)c1ccc[nH]1)CC2`, the cytotoxicity at 70.5 h came to 11.9%. On to `CC(C)c1nn(C)c(Cl)c1CNCc1cccnc1N(C)C`, for which the cytotoxicity at 70.5 h was -9.54%. As to `CCn1nc2c(cc1=O)CN(CC(=O)Nc1cc(C(C)C)no1)CC2`, the cytotoxicity at 70.5 h is -8.8%. To `O=C(Nc1ccccc1)N1CCc2nc(C(=O)N3CCCC3)sc2CC1` belongs -2.49%.

Turning to `O=S(=O)(Cc1ccccc1F)NCCN1CCOCC1`, the cytotoxicity at 70.5 h is -2.45%. To `O=C(c1cnns1)N1CCN(Cc2ccc(F)cc2Cl)CC1` belongs -4.81%.

Turning to `CCN1CCC(CC(=O)NCCc2nc(O)cc(O)n2)CC1`, the cytotoxicity at 70.5 h was 16.1%. To `CC(=O)c1ccc(C(=O)NCc2cccnc2N2CCCC(O)C2)s1` (stereo not drawn) belongs -14.1%; to `CC(C)C(NC(=O)c1ccccc1F)C(=O)N1CCC2(CC1)OCCO2` (stereo not drawn), -1.01%; to `c1cc(C2CCCN2CC2CC2)n[nH]1` (stereo not drawn), -9.13%. For `O=C(Nc1cccnc1)C1Cc2nc(-c3ccsc3)sc2N1CC1CC1` (stereo not drawn), the cytotoxicity at 70.5 h was found to be 15.3%. Regarding `COCCN(Cc1ccccc1)Cc1nc(-c2ccsc2)no1`, the cytotoxicity at 70.5 h was -3.79%.

Consider `CN1CCN2C(=O)N(C3CCOCC3)C[C@H]2C1`, for which the cytotoxicity at 70.5 h was -2.12%. In the case of `COCC1CN(C(=O)Cc2ccc(F)cc2)Cc2ccnn2C1` (stereo not drawn), the cytotoxicity at 70.5 h is -5.52%. To `CC1=C[C@@H](CN2CCN(C)CC2)[C@H](C(C)C)C[C@H]1Cc1nnc(C)o1` belongs -9.92%; to `CC(c1nc(-c2ccccc2)no1)N1CCc2c(ncn2C2CC2)C1` (stereo not drawn), -2.24%; to `CNC(=O)[C@H]1C[C@@H]2CN(Cc3ccccc3)C[C@H]1O2`, -5.88%. For `O=C(c1cocn1)N1C[C@@H]2CN(CC3CC3)CCO[C@@H]2C1`, the cytotoxicity at 70.5 h was -1.55%. To `Cc1cc(C(F)(F)F)nc(CCNC(C)Cn2nc(C)cc2C)n1` (stereo not drawn) belongs -16.8%; to `O=C(CC1CCCC1)N1CCOC(c2nc(-c3ncccn3)no2)C1` (stereo not drawn), -1.63%; to `Cc1ccccc1C1CCCN1Cc1nc2c(cnn2C)c(=O)[nH]1` (stereo not drawn), -9.08%. The value for `Cc1nc[nH]c1CN1CCN(C(=O)CCC(F)(F)F)[C@H]2CS(=O)(=O)C[C@H]21` was -9.24%. For `Cc1ccc(-c2cc(CN3CCOC(Cn4cncn4)C3)on2)cc1` (stereo not drawn), the cytotoxicity at 70.5 h was determined as 47.8%. As to `Cc1cc(C(=O)N(C)C(C)CC(C)C)on1` (stereo not drawn), the cytotoxicity at 70.5 h was -1.57%. For the compound `CCCc1nnc(N[C@H](C)c2ccc(OC)cc2)o1`, the cytotoxicity at 70.5 h was -10.6%.

Regarding `CCn1c(CN2CCCC2)nnc1C1CCN(Cc2cccnc2)CC1`, the cytotoxicity at 70.5 h came out at 19.5%. The value for `Cc1cn2c(n1)C(CNCc1ccc(C)s1)CCC2` (stereo not drawn) was 8.09%. `CCOC(=O)Cn1nnnc1-c1ccccc1`: the cytotoxicity at 70.5 h is -0.715%. With `CCn1cnnc1C1CCN(C(=O)CC(C)n2cccc2)CC1` (stereo not drawn), the cytotoxicity at 70.5 h is -1.21%.

In the case of `CC(C)(C)NC(=O)c1cnc2n1CCCC2`, the cytotoxicity at 70.5 h was -6.71%.

As to `CC(C)(C)C(=O)Nc1ccc(Oc2ccsc2C(=O)O)cc1`, the cytotoxicity at 70.5 h is 1.54%.

On to `Cc1noc(C)c1C(=O)NCC(c1ccc(F)cc1)N(C)C` (stereo not drawn), for which the cytotoxicity at 70.5 h is -2.05%. Turning to `COCC(=O)N1C[C@@H](c2cccc(F)c2)[C@H]2[C@H]1CCCCCN2C(C)=O`, the cytotoxicity at 70.5 h came out at 7.2%. Take `OC(CN1CCCc2cc(OC(F)F)ccc21)Cn1cccn1` (stereo not drawn): the cytotoxicity at 70.5 h came to 12.9%. Take `CN(Cc1ccc(N(C)C)cc1)C(=O)CS(=O)(=O)c1ccc(Cl)cc1`: the cytotoxicity at 70.5 h turned out to be 17%. Regarding `Cc1cccc(NC(=O)Cn2nc3ccccn3c2=O)c1C`, the cytotoxicity at 70.5 h is -10.3%.

Turning to `O=C(CSCc1ccccn1)NCC1CC1`, the cytotoxicity at 70.5 h stood at 0.905%. With `O=S(=O)(C1CC1)N1CCC2(CC1)CN(Cc1nccs1)CCO2`, the cytotoxicity at 70.5 h is -5.12%. For the compound `Fc1ccc(CN2CCCC3(COCCN(Cc4c[nH]nn4)C3)C2)cc1` (stereo not drawn), the cytotoxicity at 70.5 h is -5.93%. The value for `CO[C@@H]1CC[C@H]2[C@H]1OCCN2CC1CC1` was -83.7%; that for `CC(C)c1nc(C(=O)N2CCCC(n3cncn3)C2)c[nH]1` (stereo not drawn) was -2.47%. `Cn1cnc(-c2nc(C(=O)NCCN3CCCC3)c3ccccn23)c1`: the cytotoxicity at 70.5 h was -5.67%. To `CCS(=O)(=O)N1CCC(NC(=O)c2cc(C)ccc2O)CC1` belongs -5.66%; to `N#Cc1ccc(N2CCCN(CC(N)=O)CC2)cc1`, -9.42%; to `COCc1nc(C(=O)N2CCN(Cc3ccsc3)CC2)cs1`, -0.448%.

As for `Cc1nc([C@@H]2C[C@H]3CN(Cc4scnc4C)C[C@H]3O2)no1`, the cytotoxicity at 70.5 h came to 5.82%. With `CS(=O)(=O)NC1CCN(CCc2ccccc2)CC1`, the cytotoxicity at 70.5 h was -9.51%. As to `O=C(CNC(=O)N1CCc2c([nH]c3ccc(Cl)cc23)C1)NC1CCCC1`, the cytotoxicity at 70.5 h was -0.711%.

Regarding `COc1cccc(C(=O)N2CCOCC2CN(C)C)c1OC` (stereo not drawn), the cytotoxicity at 70.5 h is -2.02%. For `O=C(NCCc1ccncc1)[C@H]1C[C@@H]2CCN(c3nncs3)C[C@H]2O1`, the cytotoxicity at 70.5 h is -11.9%.

Turning to `O=C(Cn1cc(-n2cccc2)cn1)NCC(F)(F)F`, the cytotoxicity at 70.5 h is -12.8%.

Take `Cn1ccnc1CN1CCC2(CC(=O)N(c3cccc(F)c3)C2)C1` (stereo not drawn): the cytotoxicity at 70.5 h was -4.42%. With `CCCS(=O)(=O)N1CCC2(CC1)CC(N1CCCC1)c1ccccc12` (stereo not drawn), the cytotoxicity at 70.5 h was -8.52%.

With `Fc1cccc(-n2cc(CN3CCCCC3CCn3ccnc3)cn2)c1` (stereo not drawn), the cytotoxicity at 70.5 h came to 4.66%. In the case of `CCC(=O)N1CCN(S(=O)(=O)c2cccc(F)c2)[C@H]2CS(=O)(=O)C[C@H]21`, the cytotoxicity at 70.5 h is -13.7%. Turning to `O=C(Cc1ccc(CO)cc1)N1CCN(c2ccccc2Cl)C(=O)C1`, the cytotoxicity at 70.5 h was -9.48%. `c1ccc(C2Cn3ccnc3CN2Cc2ncc[nH]2)cc1` (stereo not drawn): the cytotoxicity at 70.5 h was -1.58%.

Regarding `Cc1cc(C)c(CNC(=O)NCC2CCCN2C)c(=O)[nH]1` (stereo not drawn), the cytotoxicity at 70.5 h was determined as 19%. Take `Cc1cc(CNC(=O)NCC(O)c2cccc(C(F)(F)F)c2)no1` (stereo not drawn): the cytotoxicity at 70.5 h is 1.91%. Take `O=C(c1cccs1)N1CCC(n2nc(-c3ccco3)ccc2=O)CC1`: the cytotoxicity at 70.5 h turned out to be 11.7%. Turning to `COC1CCN(CCNC(=O)NC(C)c2cccc(Cl)c2)CC1` (stereo not drawn), the cytotoxicity at 70.5 h is -0.888%. `c1nc(NCC2(N3CCOCC3)CCSC2)c2sccc2n1` (stereo not drawn): the cytotoxicity at 70.5 h was -4.54%. For the compound `O=C(c1ccoc1)N1C[C@H]2CC[C@@]3(N=C(c4ccccc4)NC3=O)[C@H]2C1`, the cytotoxicity at 70.5 h came to 0.375%. `CS(=O)(=O)NCC1CCCN(C(=O)CCCc2ccccc2)C1` (stereo not drawn): the cytotoxicity at 70.5 h was -8.93%. For the compound `CN1CCCC(CCC(=O)N2CCc3onc(C(=O)N(C)C)c3C2)C1` (stereo not drawn), the cytotoxicity at 70.5 h was -1.71%. For the compound `COc1c(CNC2CCOc3ccccc32)c(C(C)C)nn1C` (stereo not drawn), the cytotoxicity at 70.5 h is -7.12%. In the case of `Cc1ccoc1C(=O)NCCOc1ccc(C(F)(F)F)cn1`, the cytotoxicity at 70.5 h was 18.3%. To `O=C(c1ccc(O)cn1)N1CCOC(Cc2cccc(C(F)(F)F)c2)C1` (stereo not drawn) belongs 22.6%; to `Cc1cnn(CC(C)NCc2csc(-c3cccs3)n2)c1` (stereo not drawn), -22.3%. As for `Fc1ccc(CNc2ccccc2Cn2cncn2)cc1`, the cytotoxicity at 70.5 h was -7.99%. Regarding `CC(=O)NCc1ccc(C(=O)N2CCCc3c(F)ccc(C)c32)cc1`, the cytotoxicity at 70.5 h was -8.8%.

As for `CCc1nc(C2CCCN2CC(=O)Nc2cc(C)nn2C)no1` (stereo not drawn), the cytotoxicity at 70.5 h was -15.1%.
